From patent US20180362485A1, “N-HYDROXYFORMAMIDE COMPOUNDS AND COMPOSITIONS COMPRISING THEM FOR USE AS BMP l, TLL1 AND/OR TLL2 INHIBITORS” (GlaxoSmithKline Intellectual Property (No. 2) Limited, priority 2015, published 2018)
Where a name gives a salt, the structure may show the parent alone.

The molecules below were run on Generation of Procollagen I C-Terminal Propeptide (PICP) (assay: Cell-based inhibition assay of generation of procollagen I C-terminal propeptide (PICP), PICP ELISA). Conditions: Cardiac fibroblast, human cardiac fibroblasts, 24 to 48 hr, read-out: pIC50, PICP cellular inhibition assay (converted).
Description: (§1) An adaptation of the collagen deposition assay described by Chen, C. Z. C., et al., British Journal of Pharmacology, 2009, 158, 1196-1209 is used to examine effect of compounds on procollagen I processing and collagen deposition. In the adapted assay, human cardiac fibroblasts are utilized. Processing of procollagen I is determined by a PICP ELISA assay and deposition of mature collagen is determined by immunostaining.
(§2) Human cardiac fibroblasts are cultured and maintained until passage 6 in FGM-3 media (Lonza, #CC-3132) in a 37° C. humidified incubator with 5% CO2. They are then seeded in 96-well black wall, clear bottom plates at 10,000 to 15,000 cells per well in eagle's minimum essential media (EMEM, ATCC #30-2003) containing 10% fetal bovine serum (FBS, Life Technologies #10082147), 1% Glutamax (Life Technologies #35050061) and 1% Penicillin and Streptomycin (Life Technologies #15070063). These cultures are placed in 37° C. incubator. The next day, media is removed by aspiration and cells are rinsed with phosphate buffered saline. Crowding media (also called ficoll media) is prepared by adding 112.5 mg/ml of ficoll70 and 75 mg/ml ficoll400 (GE healthcare #17-0310-10 and 17-0300-10, respectively), 100 μM ascorbic acid, 1% Glutamax and 1% Penicillin and Streptomycin to EMEM media. Test compounds (dissolved in DMSO) are diluted into crowding media and then added to the cells. Final concentration of DMSO in crowding media is less than 0.3%. Cells are treated for 24 to 48 hr in a 37° C. incubator. At the end of the treatment period, cell media are collected. The level of PICP in the media is determined by a PICP ELISA assay (Quidel #8003) following the manufacturer's protocol. Potencies of test compounds are calculated by fitting PICP levels, relative to untreated controls, to log (inhibitor) vs. response equation using Graphpad Prism software 5.0 and expressed as pIC50.
`CCCCC[C@@H](C(=O)NCNC(=O)c1ccc(-c2ccc(C(=O)OCC)cc2)o1)[C@@H](CC)N(O)C=O` [Example 100, ethyl 4-(5-((((R)-2-((R)-1-(N-hydroxyformamido)propyl)heptanamido)methyl)carbamoyl)furan-2-yl)benzoate] was tested, and the IC50 was < 398 nM. For `CCCCC[C@@H](C(=O)NCNC(=O)c1ccc(-c2ccc(C(=O)OCCCC)cc2)o1)[C@@H](CC)N(O)C=O` [Example 101, butyl 4-(5-((((R)-2-((R)-1-(N-hydroxyformamido)propyl)heptanamido)methyl)carbamoyl)furan-2-yl)benzoate], the IC50 was < 398 nM. For `CCCCC[C@@H](C(=O)NCNC(=O)c1ccc(-c2ccc(C(=O)OCCN(C)C)cc2)o1)[C@@H](CC)N(O)C=O` [Example 104, 2-(dimethylamino) ethyl 4-(5-((((R)-2-((R)-1-(N-hydroxyformamido)propyl)heptanamido)methyl)carbamoyl)furan-2-yl)benzoate], the IC50 was < 398 nM. In the case of `CCCCC[C@@H](C(=O)NCNC(=O)c1ccc(-c2ccc(C(=O)N[C@@H](CC(=O)OC(C)(C)C)C(=O)OC(C)(C)C)c(OCC)c2)o1)[C@@H](CC)N(O)C=O` [Example 112, (S)-di-tert-butyl 2-(2-ethoxy-4-(5-((((R)-2-((R)-1-(N-hydroxyformamido)propyl)heptanamido)methyl)carbamoyl)furan-2-yl)benzamido) succinate], the IC50 is reported as < 398 nM. In the case of `CCCCC[C@@H](C(=O)NCNC(=O)c1ccc(-c2ccc(C(=O)N[C@@H](CC(=O)O)C(=O)OCC)c(OCC)c2)o1)[C@@H](CC)N(O)C=O` [Example 113, (S)-4-ethoxy-3-(2-ethoxy-4-(5-((((R)-2-((R)-1-(N-hydroxyformamido)propyl)heptanamido)methyl)carbamoyl)furan-2-yl)benzamido)-4-oxobutanoic acid], the IC50 is reported as < 398 nM. In the case of `CCCCC[C@@H](C(=O)NCNC(=O)c1ccc(-c2ccc(C(=O)N[C@@H](CC(=O)O)C(=O)OC(C)(C)C)c(OCC)c2)o1)[C@@H](CC)N(O)C=O` [Example 114, (S)-4-(tert-butoxy)-3-(2-ethoxy-4-(5-((((R)-2-((R)-1-(N-hydroxyformamido)propyl)heptanamido)methyl)carbamoyl)furan-2-yl)benzamido)-4-oxobutanoic acid], the IC50 is reported as < 398 nM. With `CCCCC[C@@H](C(=O)NCNC(=O)c1ccc(-c2cc(OCC)cc(P(=O)(OCOC(C)=O)OCOC(C)=O)c2)o1)[C@@H](CC)N(O)C=O` [Example 115, (((3-ethoxy-5-(5-((((R)-2-((R)-1-(N-hydroxyformamido)propyl)heptanamido)methyl)carbamoyl)furan-2-yl)phenyl)phosphoryl)bis(oxy))bis (methylene) diacetate] the IC50 was < 398 nM. For `CCCCC[C@@H](C(=O)NCNC(=O)c1ccc(-c2ccc(C(=O)N[C@@H](CC(=O)O)C(=O)OCOC(=O)c3ccccc3)c(OCC)c2)o1)[C@@H](CC)N(O)C=O` [Example 116, (S)-4-((benzoyloxy)methoxy)-3-(2-ethoxy-4-(5-((((R)-2-((R)-1-(N-hydroxyformamido)propyl)heptanamido)methyl)carbamoyl)furan-2-yl)benzamido)-4-oxobutanoic acid], the IC50 was < 398 nM. With `CCCCC[C@@H](C(=O)NCNC(=O)c1ccc(-c2ccc(C(=O)N[C@@H](CC(=O)OC)C(=O)OC)c(OCC(=O)OC)c2)o1)[C@@H](CC)N(O)C=O` [Example 142, (S)-dimethyl 2-(4-(5-((((R)-2-((R)-1-(N-hydroxyformamido)propyl)heptanamido)methyl)carbamoyl)furan-2-yl)-2-(2-methoxy-2-oxoethoxy)benzamido)succinate] the IC50 was < 398 nM. With `CCCCC[C@@H](C(=O)NCNC(=O)c1ccc(-c2ccc(C(=O)N[C@@H](CC(=O)OCC)C(=O)OCC)c(OCC)c2)o1)[C@@H](CC)N(O)C=O` [Example 143, (S)-diethyl 2-(2-ethoxy-4-(5-((((R)-2-((R)-1-(N-hydroxyformamido)propyl)heptanamido)methyl)carbamoyl)furan-2-yl)benzamido)succinate] the IC50 was < 398 nM. `CCCCC[C@@H](C(=O)NCNC(=O)c1ccc(-c2cc(OCC)cc(P(=O)(O)OCOC(=O)OC(C)C)c2)o1)[C@@H](CC)N(O)C=O` [Example 302, (((3-ethoxy-5-(5-((((R)-2-((R)-1-(N-hydroxyformamido)propyl)heptanamido)methyl)carbamoyl)furan-2-yl)phenyl) (hydroxy)phosphoryl)oxy)methyl isopropyl carbonate] was tested, and the IC50 was < 398 nM. For `CCCCC[C@@H](C(=O)NCNC(=O)c1ccc(-c2cc(OCC)cc(P(=O)(O)Oc3ccccc3)c2)o1)[C@@H](CC)N(O)C=O` [Example 400, Phenyl Hydrogen (3-ethoxy-5-(5-((((R)-2-((R)-1-(N-hydroxyformamido)propyl)heptanamido)methyl)carbamoyl)furan-2-yl)phenyl)phosphonate, Ammonia Salt], the IC50 was < 398 nM.

These molecules were tested on deposition of mature collagen (assay: Cell-based inhibition assay of mature collagen deposition (immunostaining)). Conditions: Cardiac fibroblast; human cardiac fibroblasts, immunostaining of mature collagen I; read-out: pIC50, mature collagen cellular inhibition assay (converted).
Description: as §1, §2
For some compounds, deposition of mature collagen is measured by immunostaining in addition to PICP levels. At the end of the treatment period, cells on culture plate are fixed with 100% methanol (prechilled to −20° C.) for 10 min. Then the cells are immunostained with mouse anti-mature collagen I antibody (1:500 dilution, Sigma#C2456), anti-mouse secondary antibody Alexa647 (1:500 dilution, Invitrogen#A21236) and Hoechst (for nuclei, 2 μg/ml, Invitrogen#H3596). Fluorescent image acquisition is done using the Operetta High Content Imaging system (Perkin Elmer). For each image field, the intensity of mature collagen staining is normalized with the number of nuclei. Normalized collagen levels are used to calculate the potency of test compounds with Graphpad Prism software, as described above.
With `CCCCC[C@@H](C(=O)NCNC(=O)c1ccc(-c2ccc(C(=O)N[C@@H](CC(=O)O)C(=O)O)c(OCC)c2)o1)[C@@H](CC)N(O)C=O` [WO2015/104684 Example 74, (S)-2-(2-ethoxy-4-(5-((((R)-2-((R)-1-(N-hydroxyformamido)propyl)heptanamido)methyl)carbamoyl)furan-2-yl)benzamido)succinic acid] the IC50 was < 1000 nM. With `CCCCC[C@@H](C(=O)NCNC(=O)c1ccc(-c2cc(OCC)cc(P(=O)(O)O)c2)o1)[C@@H](CC)N(O)C=O` [WO2015/104684 Example 96, (3-ethoxy-5-(5-((((R)-2-((R)-1-(N-hydroxyformamido)propyl)heptanamido)methyl)carbamoyl)furan-2-yl)phenyl)phosphonic acid] the IC50 was < 1000 nM. With `CCCCC[C@@H](C(=O)NCNC(=O)c1ccc(-c2ccc(C(=O)N[C@@H](CC(=O)O)C(=O)O)c(OCC(=O)O)c2)o1)[C@@H](CC)N(O)C=O` [WO2015/104684 Example 126, (S)-2-(2-(carboxymethoxy)-4-(5-((((R)-2-((R)-1-(N-hydroxyformamido)propyl)heptanamido)methyl)carbamoyl)furan-2-yl)benzamido)succinic acid] the IC50 was < 1000 nM. In the case of `CCCCC[C@@H](C(=O)NCNC(=O)c1ccc(-c2ccc(C(=O)NCP(=O)(O)O)c(OCC)c2)o1)[C@@H](CC)N(O)C=O` [WO2015/104684 Example 139, ((2-ethoxy-4-(5-((((R)-2-((R)-1-(N-hydroxyformamido)propyl)heptanamido)methyl)carbamoyl)furan-2-yl)benzamido)methyl)phosphonic acid], the IC50 is reported as < 1000 nM.
